Results on three compounds are retold here after US20240261274A1, “TREATMENT OF MYC-DRIVEN CANCERS WITH GSPT1 DEGRADERS” (MONTE ROSA THERAPEUTICS, INC., priority 2021, published 2024).

The subject of series [1] is Human mammary epithelial cells, or HMECs, overexpressing c-Myc in a doxycycline-inducible manner. In words: Viability of HMECs with doxycycline-inducible c-Myc overexpression. Format: cell-based. Conditions: for induction of cell death: highest concentration tested 30 μM. The text has this: X-axis represents m concentration of compound 8; y-axis represents viability normalized to DMSO.

The target of series [2] is GSPT1 (Homo sapiens, UniProt P15170+Q96SW2). In words: GSPT1 degradation in tumors of mice treated with compound 210. Type of series: in vivo. On the set-up: from tissue; host or cells: NCI-H1155 subcutaneous xenograft tumours from BALB/c nude mice. The conditions noted are these: 1 mg/kg, 3 mg/kg, 6 mg/kg; compared to vehicle control.
In series [3] the test system is NCI-H1155 xenograft (human non small cell lung cancer). In words: NCI-H1155 xenograft efficacy study (compound 210). Format: in vivo, BALB/c nude mice. On the procedure:
For the NCI-H1155 xenograft study, cells (human non small cell lung cancer, ATCC CRL-5818) were maintained in vitro as suspension culture in ATCC-formulated DMEM:F12 Medium supplemented as recommended by the provider and kept at 37° C. in an atmosphere of 5% CO2 in air. Cells (0.5 million) were resuspended in 0.2 mL of PBS with Matrigel (50:50) and inoculated into female BALB/c nude mice, 6-8 weeks old, and allowed to grow to 150 mm^3 in size. Mice were dosed orally with either vehicle or compound 210 at 1 or 3 mg per kilogram daily (filled squares and filled triangles, respectively) or 6 mg per kilogram for 5 continuous days followed by 9 days treatment holidays (5 On-9 off) (filled inverted triangles). Compound formulations were prepared fresh daily in 5% vDMSO/95% (30% w/v HP-β-CD in water). Gemcitabine dosed at 40 mg per kilogram, IP, Q4D×5 was used as a positive control (filled rhombi). For this study, mice were dosed for 21 days with tumor volumes measured every 3 days.

For series [4], the system named is MM1 S cells. In words: Apoptosis assay, caspase 3/7 activity in MM1 S cells. Type of series: cell-based. The conditions noted are these: 0 to 30 μM, 48 hours. On the procedure: For the same MM cell line, the effect of Compound 345 on apoptosis was evaluated. MM1 S cells were treated with Compound 345 in culture at increasing concentrations ranging from 0 to 30 μM and a control group was treated with lenalidomide, a well-known MM drug. After 48 hours, fold-change caspase 3/7 activity (a marker of apoptosis) was measured and plotted against concentration of Compound 345 compared to lenalidomide as the control. […] For the same MM cell line, the impact of Compound 345 on cell viability was evaluated. MM1 S cells were treated with Compound 345 in culture at increasing concentrations ranging from 0 to 100 μM. Cell viability was measured as a percentage survival after 72 hours.
Apoptosis assay: MM1S cells were sub-cultures as recommended by the providers (ATCC, DSMZ) and incubated at 37° C., 5% CO2. Briefly, cells were seeded in white 96-well plates (100 μL/well) at a density of 50000 cells/well and incubated overnight at 37° C. with 5% CO2. […] Cell apoptosis was assessed using the Caspase-Glo® 3/7 Assay kit as recommended by the manufacturer (Promega, Cat. No. G8091, Lot. No. 0000385738) and measurements were performed on the EnSpire multimode plate reader (Perkin Elmer). EC50 values were determined using Prism8.1.2 (GraphPad) and the asymmetric (five-parameter) equation and least squares fit.

Series [5] relates to DOHH2 lymphoma cell line derived xenograft. In words: DOHH2 lymphoma CDX efficacy study. Format: in vivo, immunodeficient mice. The conditions noted are these: oral daily 3 mg/kg and 10 mg/kg. As for the experimental part:
Additionally, cell line derived xenograft (CDX) models were produced for lymphoma cell line (DOHH2) in immunodeficient mice. Oral dosing of Compound 345 was performed daily at doses of 3 mg/kg and 10 mg/kg as well as the CHOP combination (a well-known lymphoma treatment regimen) and a no-drug vehicle control. Tumor volumes were measured (mm^3) at regular intervals over the course of up to 30 days depending on the animal.
In vivo efficacy study: NCI-H1155, MM1 S, WSU-DLCL2, DOHH-2 cells were maintained in vitro in individual medium and conditions as recommended by the providers and incubated at 37° C. in an atmosphere of 5% CO2 in air. 0.5 million (NCI-H1155), 10 million (MM1S) or 5 million (WSU-DLCL2 and DOHH-2) cells were resuspended in typically 0.1-0.2 mL of PBS with Matrigel (50:50) and were inoculated into 6-8 weeks old BALB/c nude female (NCI-H115, WSU-DLCL2), NOD/SCID (MM1S) or CB-17SCID (DOHH-2) mice and allowed to grow to 150-200 mm3 in size. […] Tumor volumes were measured at least twice weekly during the treatment period using a caliper and the volume was expressed in mm3 using the formula: V=0.5 a×b2 where a and b were the long and short diameters of the tumor, respectively. […] Data are expressed as the mean±SEM. All data was analyzed using GraphPad Prism 8.1.2 (GraphPad).

Chain of GSPT1 (P15170 whole entry): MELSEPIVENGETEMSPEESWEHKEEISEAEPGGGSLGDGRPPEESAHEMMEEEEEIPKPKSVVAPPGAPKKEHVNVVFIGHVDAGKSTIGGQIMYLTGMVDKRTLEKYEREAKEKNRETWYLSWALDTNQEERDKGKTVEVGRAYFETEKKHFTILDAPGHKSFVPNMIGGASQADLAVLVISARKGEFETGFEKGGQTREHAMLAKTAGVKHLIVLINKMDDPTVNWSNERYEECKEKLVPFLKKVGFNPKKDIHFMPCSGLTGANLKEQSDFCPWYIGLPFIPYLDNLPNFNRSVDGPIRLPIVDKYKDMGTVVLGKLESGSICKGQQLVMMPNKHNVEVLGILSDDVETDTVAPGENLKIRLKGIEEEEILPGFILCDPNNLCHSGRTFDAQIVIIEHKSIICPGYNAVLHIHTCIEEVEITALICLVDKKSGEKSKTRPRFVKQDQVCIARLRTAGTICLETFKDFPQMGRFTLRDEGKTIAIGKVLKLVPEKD
Chain of GSPT1 (Q96SW2 whole entry): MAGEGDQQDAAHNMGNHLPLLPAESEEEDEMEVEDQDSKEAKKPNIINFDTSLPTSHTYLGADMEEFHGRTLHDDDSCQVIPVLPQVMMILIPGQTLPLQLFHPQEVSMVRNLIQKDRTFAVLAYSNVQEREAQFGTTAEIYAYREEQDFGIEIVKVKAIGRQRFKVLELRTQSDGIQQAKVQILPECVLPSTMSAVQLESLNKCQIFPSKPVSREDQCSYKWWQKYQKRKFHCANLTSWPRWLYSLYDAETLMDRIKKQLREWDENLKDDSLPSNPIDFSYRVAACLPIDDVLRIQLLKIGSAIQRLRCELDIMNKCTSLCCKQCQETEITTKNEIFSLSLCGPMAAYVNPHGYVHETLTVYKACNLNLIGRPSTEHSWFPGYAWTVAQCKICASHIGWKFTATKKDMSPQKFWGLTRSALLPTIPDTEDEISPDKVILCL
Chain of GSPT1 (Q16531 whole entry partner): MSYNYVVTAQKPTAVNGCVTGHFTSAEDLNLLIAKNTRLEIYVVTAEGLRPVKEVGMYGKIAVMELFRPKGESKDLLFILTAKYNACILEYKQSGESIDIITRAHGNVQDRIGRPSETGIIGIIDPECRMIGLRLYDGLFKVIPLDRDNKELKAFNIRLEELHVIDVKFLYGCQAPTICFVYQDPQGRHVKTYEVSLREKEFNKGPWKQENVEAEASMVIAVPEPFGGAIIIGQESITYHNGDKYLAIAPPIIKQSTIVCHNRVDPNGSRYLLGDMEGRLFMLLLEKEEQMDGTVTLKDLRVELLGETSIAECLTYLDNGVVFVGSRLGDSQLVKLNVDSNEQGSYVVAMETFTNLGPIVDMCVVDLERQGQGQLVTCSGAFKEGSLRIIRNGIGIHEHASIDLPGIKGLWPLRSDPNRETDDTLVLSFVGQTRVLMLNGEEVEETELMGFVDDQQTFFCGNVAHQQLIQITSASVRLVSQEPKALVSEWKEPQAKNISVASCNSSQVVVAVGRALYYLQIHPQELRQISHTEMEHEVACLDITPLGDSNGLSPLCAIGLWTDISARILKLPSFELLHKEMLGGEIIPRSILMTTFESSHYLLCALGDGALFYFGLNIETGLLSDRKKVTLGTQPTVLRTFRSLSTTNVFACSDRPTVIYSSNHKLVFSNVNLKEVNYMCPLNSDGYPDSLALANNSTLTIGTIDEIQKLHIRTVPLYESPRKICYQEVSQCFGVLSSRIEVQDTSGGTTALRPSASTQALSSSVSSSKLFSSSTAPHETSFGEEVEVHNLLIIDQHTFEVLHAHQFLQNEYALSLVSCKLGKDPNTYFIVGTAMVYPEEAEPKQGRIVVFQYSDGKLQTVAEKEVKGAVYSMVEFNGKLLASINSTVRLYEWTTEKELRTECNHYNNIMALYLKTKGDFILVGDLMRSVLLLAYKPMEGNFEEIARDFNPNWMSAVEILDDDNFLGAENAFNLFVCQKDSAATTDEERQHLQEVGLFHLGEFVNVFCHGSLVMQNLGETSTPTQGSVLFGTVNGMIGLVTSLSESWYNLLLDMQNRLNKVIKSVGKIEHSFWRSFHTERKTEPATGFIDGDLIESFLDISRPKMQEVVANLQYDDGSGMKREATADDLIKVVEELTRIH

One may read the EC50 as the concentration giving half of the maximal effect. Take `Cc1ccc(NC(=O)NCc2ccc3c(c2)C(=O)N(C2CCC(=O)NC2=O)C3)cc1Cl` (stereo not shown) [Compound 8]: the EC50 in series [1] (Homo sapiens, HMEC, presence of high c-Myc expression, read-out: EC50 of induced cell death (viability normalized to DMSO)) was determined as 640 nM. For the same compound, the “induction of cell death” value in series [1] (absence of doxycycline-driven c-Myc expression) and in series [1] (after doxycycline was washed out to remove c-Myc expression) was “did not induce cell death” throughout.

For the compound `Cc1ccc(NC(=O)OCc2ccc3c(c2)C(=O)N(C2CCC(=O)NC2=O)C3)cc1Cl` (stereo not shown) [Compound 210], the “GSPT1 degradation in tumors” value in series [2] was “complete degradation of GSPT1”. In series [3] (oral administration, NCI-H1155 xenograft mice), the body weight entry is reported as “no body weight loss observed”. In series [3] (oral, 1 mg/kg once daily), the tumor growth result is “tumor growth was suppressed for two weeks”. For the same compound, the tumor size entry in series [3] (oral, 3 mg/kg once daily) is reported as “tumor size decreased, became undetectable by day eight”; in series [3] (oral, 6 mg/kg five days on and nine days off) it was “tumor size decreased, became undetectable by day eight”.

With `O=C1CCC(N2Cc3ccc(COC(=O)Nc4cc(OC(F)(F)F)ccc4F)cc3C2=O)C(=O)N1` (stereo not shown) [Compound 345, (2-(2,6-dioxopiperidin-3-yl)-3-oxoisoindolin-5-yl)methyl(2-fluoro-5-(trifluoromethoxy)phenyl)carbamate], the “fold-change caspase 3/7 activity (apoptosis)” value in series [4] is recorded as “strong induction of apoptosis”. Also, the tumor volume entry in series [5] is “anti-tumor activity”.
